One series relates to L02. In words: Cytotoxicity against human LO2 cells assessed as reduction in cell viability incubated for 24 hrs by MTT assay. It counts as cell-based. To be noted: L02, 24 h. For orientation: Tetrazolium dyes change colour on reduction, which living cells bring about.
Series [1] has as its system RAW264.7. Briefly: Antiinflammatory activity in mouse RAW264.7 cells assessed as inhibition of LPS-stimulated TNF-alpha production at 6.0 uM preincubated for 2 hrs followed by LPS stimulaton measured after 22 hrs by ELISA relative to control. It counts as functional. (In an ELISA, binding on a coated surface is turned into a signal by an enzyme label.)
The test system of another series is HepG2. In words: Cytotoxicity against human HepG2 cells assessed as reduction in cell viability incubated for 24 hrs by MTT assay. In kind it is functional, cell-based. To be noted: HepG2, 24 h.
The test system of another series is QGY-7703. Briefly: Cytotoxicity against human QGY7703 cells assessed as reduction in cell viability incubated for 24 hrs by MTT assay. It counts as functional, cell-based. The note with it: QGY-7703, 24 h.
The test system of a further series is SMMC-7721. Briefly: Cytotoxicity against human SMMC7721 cells assessed as reduction in cell viability incubated for 24 hrs by MTT assay. The note with it: SMMC-7721, 24 h. In kind it is functional, cell-based.
Series [2] is described as follows: Cytotoxicity against human HHL5 cells assessed as reduction in cell viability incubated for 24 hrs by MTT assay. The note with it: HHL-5, 24 h. It counts as cell-based.
For series [3], the system named is RAW264.7. In words: Antiinflammatory activity in mouse RAW264.7 cells assessed as inhibition of LPS-stimulated IL-6 production 6.0 uM preincubated for 2 hrs followed by LPS stimulaton measured after 22 hrs by ELISA relative to control. It counts as functional.
Series [4] relates to RAW264.7. In words: Cytotoxicity against mouse RAW264.7 cells assessed as reduction in cell viability at 6.0 uM incubated for 24 hrs by MTT assay. To be noted: raw264.7, 24 h. It counts as cell-based.

From ChEMBL document CHEMBL4339189, “Dissymmetric pyridyl-substituted 3,5-bis(arylidene)-4-piperidones as anti-hepatoma agents by inhibiting NF-κB pathway activation” (Eur J Med Chem, 2019) come the findings set out here.

Active and inactive are the calls of the source. The rule behind the calls is not given here.

For `O=C1/C(=C/c2ccncc2)CN(S(=O)(=O)c2ccc([N+](=O)[O-])cc2)C/C1=C\c1ccccc1F`, the IC50 turned out to be 18.4 µM with L02; 11.3 µM in the series on HepG2; 8.8 µM with QGY-7703; 15.8 µM in the series with SMMC-7721; 16 µM in series [2]. In addition, the inhibition entry in the series with RAW264.7 [1] and in the series with RAW264.7 [3] was “inactive” each time. Moreover, the Activity result in the series on RAW264.7 [4] is “Non-Toxic”.
Consider `CN1C/C(=C\c2ccc(C#N)cc2)C(=O)/C(=C/c2cccnc2)C1`, for which the IC50 with L02 was above 20 µM; with HepG2 it was 12.7 µM; in the series on QGY-7703, above 20 µM; in the series on SMMC-7721, 13.6 µM; in series [2] it was above 20 µM. Also, the inhibition entry in the series with RAW264.7 [1] and with RAW264.7 [3] was “Active” each time. In addition, the Activity entry in the series with RAW264.7 [4] is reported as “Non-Toxic”.
With `O=C1/C(=C/c2cccnc2)CN(S(=O)(=O)c2ccc(Br)cc2)C/C1=C\c1ccccc1F`, the IC50 in the series on L02 is 14.6 µM; in the series with HepG2 it was 8.7 µM; in the series on QGY-7703, 12.8 µM; with SMMC-7721 it was 9.1 µM; in series [2] it was 14.2 µM. Moreover, the inhibition entry with RAW264.7 [1] and in the series with RAW264.7 [3] was “inactive” throughout. Besides, the Activity entry in the series on RAW264.7 [4] is “Non-Toxic”.
`CN1C/C(=C\c2ccncc2)C(=O)/C(=C/c2cc([N+](=O)[O-])ccc2F)C1`: the IC50 with L02 amounted to 17.6 µM; with HepG2 it was 5.2 µM; with QGY-7703, 5.7 µM; with SMMC-7721 it was 14.7 µM; in series [2], 15.2 µM. For the same compound, the inhibition at 6 µM in the series on RAW264.7 [1] is below 30%. For the same compound, in the series with RAW264.7 [3], the “inhibition (INH)” value is recorded as below 30%. The Activity entry with RAW264.7 [4] is on record as “Non-Toxic”.
For the compound `COc1cc(/C=C2\CN(C)C/C(=C\c3ccncc3)C2=O)cc(OC)c1`, the IC50 in the series on L02 was determined as 13.4 µM; with HepG2, 9.5 µM; in the series with QGY-7703, 8.4 µM; in the series with SMMC-7721, 5.81 µM; in series [2] it was 11.1 µM. For the same compound, the inhibition result in the series on RAW264.7 [1] and with RAW264.7 [3] was “Active” throughout. Further, the Activity entry in the series with RAW264.7 [4] is “Non-Toxic”.
In the case of `COc1cc(/C=C2\CN(C)C/C(=C\c3ccncc3)C2=O)cc(OC)c1OC`, the IC50 with L02 amounted to 16.4 µM; in the series with HepG2, 9.8 µM; with QGY-7703, 5.9 µM; with SMMC-7721, 9.13 µM; in series [2], 12.3 µM. Besides, the inhibition entry in the series on RAW264.7 [1] and with RAW264.7 [3] was “Active” in each case. In addition, in the series on RAW264.7 [4], the Activity result is “Non-Toxic”.
In the case of `O=C1/C(=C/c2cccnc2)CN(S(=O)(=O)c2ccccc2)C/C1=C\c1ccccc1F`, the IC50 in the series with L02 came to 15.3 µM; in the series on HepG2, 8.21 µM; with QGY-7703, 4.8 µM; in the series on SMMC-7721 it was 19.1 µM; in series [2], 14 µM. Further, the inhibition result with RAW264.7 [1] and with RAW264.7 [3] was “inactive” in each case. In addition, the Activity entry with RAW264.7 [4] is “Non-Toxic”.
As for `O=C1/C(=C/c2cccnc2)CN(S(=O)(=O)c2ccc(Br)cc2)C/C1=C\c1ccccc1C(F)(F)F`, the IC50 in the series with L02 amounted to 13.3 µM; in the series on HepG2, 2.73 µM; in the series with QGY-7703, 5.51 µM; in the series on SMMC-7721 it was 5.76 µM; in series [2], 15.5 µM. For the same compound, the inhibition result with RAW264.7 [1] and with RAW264.7 [3] was “Active” each time. Moreover, the Activity result in the series on RAW264.7 [4] is “Non-Toxic”.
Take `CC(=O)Nc1ccc(S(=O)(=O)N2C/C(=C\c3cccnc3)C(=O)/C(=C/c3ccccc3F)C2)cc1`: the IC50 in the series with L02 is 15.6 µM; in the series with HepG2, 4.56 µM; in the series on QGY-7703 it was 9.64 µM; with SMMC-7721 it was 10.9 µM; in series [2] it was 14.2 µM. Besides, the inhibition entry with RAW264.7 [1] and with RAW264.7 [3] was “Active” each time. Also, the Activity entry in the series on RAW264.7 [4] is “Non-Toxic”.

A word on the IC50: it is the concentration that inhibits the measured activity by half. For orientation: inhibition means the change of the read-out against control, counted positive when it falls.
